Test results as given in PubChem BioAssay AID2401 (Southern Research Specialized Biocontainment Screening …, 2010).

These molecules were tested on S. Typhimurium GFP reporter counter-screen, fluorescence, 4 h (assay: S. Typhimurium nonspecific reporter signal inhibition – Salmonella Typhimurium, GFP fluorescence, counter-screen for PhoP regulon inhibitor project, dose response (AID 2401);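 also: S. typhimurium with Mg-insensitive nmpC-GFP reporter grown at 10 µM Mg2+; drop in reporter fluorescence reflects general culture growth inhibition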).

Row | Compound | IC50 [µM]
1 | C=C1c2cccc(O)c2C(O)=C2C(=O)[C@]3(O)C(O)=C(C(N)=O)C(=O)[C@@H](N(C)C)[C@@H]3[C@@H](O)[C@H]12 | 0.67
2 | Oc1c(C(Nc2ccccn2)c2ccccn2)ccc2cccnc12 (stereo not given) | 40.2
3 | CC(C)CCNCC(O)CON=C1c2ccccc2-c2ccccc21 (stereo not given) | 126
4 | CCC(C)N1CCC2(CC1)N=c1c(c3c4c5c(C)c(O)c3c(O)c1=NC(=O)C(C)=CC=C[C@H](C)[C@H](O)[C@@H](C)[C@@H](O)[C@@H](C)[C@H](OC(C)=O)[C@H](C)[C@@H](OC)C=CO[C@@](C)(O5)C4=O)N2 (stereo not given in full) | 2.28
5 | CCn1cc(C(=O)NCC(C)C)c(=O)c2cc(F)c(N3CCN(C)CC3)cc21 | 67.8
6 | CCCCCCCCn1c2c(c(=N)c3c1CCC3)CCCC2 | 70.9
7 | Cc1nc(N)nc(N)c1/C=C/C(C)(C)c1ccc(Cl)cc1 | 8.11
8 | NC1=NC[C@H](Cc2ccc(O)cc2)N1CCC12CC3CC(CC(C3)C1)C2 | 70.7
9 | CC[n+]1c(/C=C/N(C)c2ccccc2)n(-c2ccccc2)c2ccc(-c3nc4ccccc4s3)cc21 | 19.4
10 | CCCCCCCCCn1c2c(c(=N)c3c1CCC3)CCC2 | 37.2
11 | CCCC(=O)NC(c1ccccc1)c1ccc2cccnc2c1O (stereo not given) | 40
12 | c1ccc(-c2cccc(-c3ccccn3)n2)nc1 | 21.2
13 | Clc1ccc(Cl)c(OCCCCNCc2ccccc2)c1 | 97.6
14 | CCC(C)(C)c1ccc(OCCCC[n+]2ccccc2)c(C(C)(C)CC)c1 | 34.9
15 | CCCC(=O)NC(c1ccc(C)cc1)c1ccc2cccnc2c1O (stereo not given) | 100
16 | C=CC1=C(C(=O)O)N2C(=O)[C@@H](NC(=O)/C(=N\O)c3csc(N)n3)[C@H]2SC1 (stereo in doubt) | 33.3
17 | C/C(=N\N=C(N)N)c1ccc(Cl)c(Cl)c1 | 94.2
18 | C/C(=N\Nc1ncnc2sc(C)c(C)c12)c1ccccn1 | 26.4
19 | O=C(Cc1c[nH]c2ccccc12)N/N=C/c1ccccc1O | 89.3
20 | C=CC1=C(C(=O)O)N2C(=O)[C@@H](NC(=O)/C(=N/OCC(=O)O)c3csc(N)n3)[C@H]2SC1 | 30.3
21 | Cc1[nH]c2ccccc2c1C(=O)COC(=O)c1ccc([N+](=O)[O-])s1 | 130
22 | Nc1nc(N2CCN(C/C=C/c3ccccc3)CC2)nc2ccccc12 | 107
23 | O=[N+]([O-])c1cc(CN2CCCC2)c2cccnc2c1O | 40.6
24 | CCc1ccc(NC(=O)C[n+]2cc(-c3ccc(C)cc3)n3c2CCC3)cc1 | 85.9
25 | O=C(Oc1c(Cl)cc(Cl)c2cccnc12)c1ccco1 | 21.6
26 | COc1cc([N+](=O)[O-])cc(/C=N\NC(=O)C2COc3ccccc3O2)c1O (stereo not given) | 85.3
27 | CCn1cc(C(=O)O)c(=O)c2cc(F)c(N3CCN(C(=S)NC(=O)c4ccccc4)CC3)cc21 | 29.8

Row | Compound | IC50 [µM]
28 | COc1c(N2CCN(C(=S)NCc3ccccc3)C(C)C2)c(F)cc2c(=O)c(C(=O)O)cn(C3CC3)c12 (stereo not given) | 90.4
29 | N=c1n(CC(=O)c2ccc(Br)s2)c2ccccc2n1Cc1ccccc1 | 40.4
30 | CCCC(=O)NC(c1ccc(Cl)cc1)c1ccc2cccnc2c1O (stereo not given) | 108
31 | c1ccc2c(c1)Sc1ccccc1N2CC1CN2CCC1CC2 (stereo not given) | 108
32 | CCCCCCCCCCCCCCCC[N+](C)(C)CCN(Cc1ccc(OC)cc1)c1ncccn1 | 20.2
33 | Cc1ccc(Nc2nc(NCc3ccco3)c3ccccc3n2)cc1 | 22.2
34 | CC(=O)Oc1cc2cccc(OC(C)=O)c(=O)c2c(OC(C)=O)c1OC(C)=O | 62.8
35 | O=C(Nc1ccccc1)Nc1ncc([N+](=O)[O-])s1 | 37.1
36 | Cn1cnc([N+](=O)[O-])c1Oc1cccc(O)c1 | 143
37 | CCOc1ccc(Nc2c3ccccc3nc3ccccc23)cc1 | 77.3
38 | Nc1nonc1C(=O)N/N=C/c1cc(Br)ccc1O | 9.03
39 | O=C(Nc1nnc(-c2cccs2)o1)c1cccc(Oc2ccccc2)c1 | 40.8
40 | COc1ccc2[nH]c3c(C)c4ccncc4c(C)c3c2c1 | 20.5
41 | OCCN1CCN(Cc2cc(Cl)c3cccnc3c2O)CC1 | 75.2
42 | Cc1ccc(-c2csc(NC(=O)C[n+]3cc(-c4ccc(C)cc4)n4c3CCC4)n2)cc1 | 38.4
43 | O=C(CN1CCCC1)N/N=C/c1c(O)ccc2ccccc12 | 29.9
44 | CCOc1cc(/C=N/N=C(N)N)ccc1OCc1ccc(Cl)cc1 | 52.4
45 | COc1ccc(OCC(O)CNc2ccc(Br)cc2)cc1 (stereo not given) | 14.3
46 | O=C(C[n+]1cc(-c2ccc(Cl)cc2)n2c1CCC2)Nc1nc(-c2ccc(F)cc2)cs1 | 38.3
47 | Cc1ccc(Nc2cc(C)nn2-c2nc(C)cc(=O)[nH]2)cc1 | 13.1
48 | CC1(C)CC(=O)C(C(=O)/C=C/NCCc2ccccc2)C(=O)C1 | 122
49 | O=C(N/N=C/c1c[nH]c2ccccc12)c1cc(-c2ccc3ccccc3c2)n[nH]1 | 47.3
50 | Nc1ccc2nc(-c3cc(Cl)c(N)c(Cl)c3)[nH]c2c1 | 80.7
51 | Oc1c(I)cc(Cl)c2cccnc12 | 8.56
52 | O=C(N/N=C/c1cc(Cl)ccc1O)c1cccnc1 | 25.6
53 | CCCOc1ccc(Br)cc1CSC(=N)N | 134
54 | CCCCCCCCCCCCCCCC[N+](C)(C)C | 30.5

Row | Compound | IC50 [µM]
55 | O=C(NCCNc1ccc([N+](=O)[O-])cc1C(F)(F)F)c1cccc(F)c1 | 106
56 | CCCC(=O)NC(c1cccs1)c1cc([N+](=O)[O-])c2cccnc2c1O (stereo not given) | 25.8
57 | C=CCNc1ncnc2c1[nH]c1ccccc12 | 118
58 | N=c1c2c(n(Cc3ccc(Br)cc3)c3c1CCC3)CCCC2 | 132
59 | CC(=O)Oc1ccc(C(=O)[C@H]2[C@H]3C(=O)N(c4ccc5ccccc5c4)C(=O)[C@H]3[C@@H]3C=CC=NN32)cc1 | 128
60 | CCCC(=O)NC(c1ccc(N(C)C)cc1)c1ccc2cccnc2c1O (stereo not given) | 107
61 | Cc1ccc(S(=O)(=O)/N=C2/C=C(Sc3ncn[nH]3)C(=O)c3ccccc32)c(C)c1 | 149
62 | O=C1C(=O)c2ccccc2-c2ccccc21 | 10.7
63 | CCN(CC)S(=O)(=O)c1cccc(C(=O)N/N=C/c2ccc(O)c(O)c2O)c1 | 98.6
64 | O=C(N[C@H](CO)[C@H](O)c1ccc([N+](=O)[O-])cc1)C(Cl)Cl | 9.59
65 | O=C1c2ccccc2C(=O)c2[nH]c(=O)[nH]c21 | 6.67
66 | CCOC(=O)C1=Nc2ccccc2C1=[N+]=[N-] | 42.6
67 | Oc1ccc(/C=N/Nc2nccnc2Cl)c(O)c1 | 35
68 | CCOC(=O)Cc1csc(NC(=O)NC2(C(F)(F)F)Oc3cc(Cl)c(Cl)cc3O2)n1 | 74.6
69 | Nc1cc2nsnc2cc1Br | 77.3
70 | C=CCc1cccc(C2Nc3ccccc3C(=O)N2O)c1O (stereo not given) | 80.9
71 | O=C(N/N=C/c1ccc(O)cc1O)/C(=C/c1ccccc1)CCO | 124
72 | CN(C)S(=O)(=O)c1cccc(NC(=S)N/N=C/c2cc(Br)ccc2O)c1 | 32.4
73 | O=C(O)C1Nc2c(O)cccc2C2C=CCC12 (stereo not given) | 86.9
74 | COc1ccc(C(C[N+](=O)[O-])C2(c3ccc(OC)c(OC)c3)C(=O)c3ccccc3C2=O)cc1 (stereo not given) | 23.2
75 | CC[C@@H](C)[C@H](CNC)NC[C@@H](Cc1cccc2ccccc12)NCCc1cccc(C(F)(F)F)c1 | 32.3
76 | CO[C@@]1(NC(=O)C2SC(=C(C(N)=O)C(=O)O)S2)C(=O)N2C(C(=O)O)=C(CSc3nnnn3C)CS[C@@H]21 (stereo not given in full) | 26.9
77 | O=C(N/N=C/c1cc2c3c(c1O)CCCN3CCC2)c1ccccc1O | 95.3
78 | Oc1cccc(C=NCc2ccccc2)c1O | 144
79 | NC1=NC2(CCCCC2)N=C(Nc2ccc(Br)cc2)N1 | 119
80 | Oc1ccc(CNc2ccccc2F)c2cccnc12 | 45.7
